# Assay results: patent US20070043082A1, “Use of antimuscarinic drugs” (priority 2005, published 2007)
# Entries after “also recorded” stand apart in the source; their conditions may differ.
# Legend:
# [1] = species and source not stated; cited from earlier work
# [2] = tested on: spontaneous recurrent epileptic seizures (pilocarpine model of epilepsy); assay: pilocarpine model of epilepsy in rats: video monitoring of spontaneous epileptic seizures after status epilepticus; format: in vivo, Wistar rats
# Source text: The current invention was based on an experimental model of epilepsy in which in rats the induction of a brain lesion is accomplished through the administration of pilocarpine, a cholinergic agonist. According to the original description of this model, approximately 20-30 days after pilocarpine injection in either rats or mice, there is the onset of spontaneous recurrent epileptic seizures (Turski W A, Cavalheiro E A, Schwarz M, Czuczwar S J, Kleinrok Z and Turski L. Limbic seizures produced by pilocarpine in rats: behavioural, electroencephalographic and neuropathological study. Behavioral Brain Research, 9:315-335, 1983; Mello L E A M, Cavalheiro E A, Babb T L, Kupfer W R, Pretorius J K, Tan A M and Finch D M. Circuit mechanisms of seizures in the pilocarpine model of chronic epilepsy: cell loss and mossy fiber sprouting. Epilepsia 34:985-995, 1993). Due to its special features the pilocarpine model is currently one of the 3 most widely used experimental models in the study of epilepsy.
# (§1) Biperiden, together with atropine, is a classic […] and is known to block muscarinic receptors. These drugs are known by their abilities in blocking the cholinergic transmission which is otherwise mediated through muscarinic receptors. For our experiments we used Wistar, adult, male, rats which were maintained under controlled conditions of temperature, light/dark cycles and kept in groups of up to 6 animals in polypropilene boxes with free access to tap water and rat chow pellets. Rats were subject to the intraperitoneal administration of pilocarpine in a dose of 320 mg/Kg for the induction of status epilepticus.
# As expected, the systemic administration of pilocarpine lead to a sequence of behavioral alterations such as akinesia, body tremor and/or myoclonic jerks of the head and oro-facial stereotyped movements accompanied by profuse salivation. Status epilepticus, a condition of uninterrupt epileptic seizure, developed on average 19±5 min after the injection of pilocarpine. Three hours after the onset of status epilepticus the animals in the experimental group (n=10) were intraperitoneally injected with the first initial dose of biperiden (8 mg/kg). This dose represents the concentration needed to provoke memory impairments in rodents, (Roldan G, Bolanos-Badillo E, Gonzales-Sanches H, Quirarte G L and Prado-Alcala R A J W. Selective M1 muscarinic receptor antagonists disrupt memory consolidation of inhibitory avoidance in rats. Neurosci. Lett., 230:93-6, 1997).
# For the animals in the control group (n=6), […] after the onset of status epileticus, administration of sterile saline solution (0.9% NaCl), rather than biperiden, was started with a similar protocol.
# In the pilocarpine model of epilepsy, a few weeks after the administration of pilocarpine and the induction of status epilepticus, the animals develop spontaneous epileptic seizures which recur for as long as the animal are allowed to live. It is assumed that such epileptic condition adequately mimics some types of epileptic seizures in humans and may closely reflect the sequence of events that take place in post-traumatic epilepsies.
# Approximately 15 to 20 days after the induction of status epilepticus, the reported duration of the latent period for the onset of spontaneous seizures, monitoring of the behavioral seizures with a videocamera for approximately 12 hours/week was initiated. Based on our initial hypothesis, that the experimental group (treated with biperiden) would either have a substantial reduction or would show no spontaneous epileptic seizures, and therefore to avoid a false negative result, the sampling rate for video monitoring of these animals was performed for 24 hours/week. Animals were video monitored for approximately 120 days after the induction of status epilepticus. The recorded video tapes were routinely assessed in a 29 inches wide television screen and the seizures observed for each animal were recorded.
# status epilepticus = assay: induction of status epilepticus by systemic pilocarpine; format: in vivo, Wistar rats; settings: pilocarpine 320 mg/Kg intraperitoneal; average
# Source text: as §1
# As expected, the systemic administration of pilocarpine lead to a sequence of behavioral alterations such as akinesia, body tremor and/or myoclonic jerks of the head and oro-facial stereotyped movements accompanied by profuse salivation. Status epilepticus, a condition of uninterrupt epileptic seizure, developed on average 19±5 min after the injection of pilocarpine. Three hours after the onset of status epilepticus the animals in the experimental group (n=10) were intraperitoneally injected with the first initial dose of biperiden (8 mg/kg). […]
structure (smiles),measurement,setting,value
OC(CCN1CCCCC1)(c1ccccc1)C1CC2C=CC1C2 (stereo not drawn) [biperiden],half-life,[1],24 ± 1.2 h
same,"Length of the latent period for the onset of the first recorded spontaneous epileptic seizure, Latency","[2]; biperiden 8 mg/kg i.p. every 8 hours for 10 days, started 3 h after onset of status epilepticus, n=10, mean ± standard deviation, p < 0.03 vs control (Mann-Whitney)",6.0±1.1 weeks
same,"Frequency of spontaneous epileptic seizures, Spontaneous seizures/h","[2]; biperiden 8 mg/kg i.p. every 8 hours for 10 days, n=10, monitored about 120 days, mean ± standard deviation, p < 0.02 vs control (Mann-Whitney)",0.0202 ± 0.0047 seizures/h
same,frequency of epileptic seizures in animals that developed seizures (in words),[2]; compared to animals not treated with biperiden,significantly lesser frequency
same,mean frequency of spontaneous epileptic seizures of the control group relative to the experimental group,[2]; control (saline) vs experimental (treated with biperiden),2 times
same,"qualitative or quantitative nature of each individual seizure, difference between the two groups",[2]; experimental (biperiden) vs control,no differences
same,mean latency of the experimental group relative to the control group,[2]; experimental (biperiden) vs control (saline),two times greater; also recorded: twice that of the control group
same,"onset of spontaneous recurrent seizures, i.e., epilepsy (in words)",[2]; prophylactic use after pilocarpine lesion,significantly retarded or even suppressed
CC[C@@H]1C(=O)OC[C@@H]1Cc1cncn1C [pilocarpine],time to development of status epilepticus after injection,status epilepticus,19 ± 5 min
